From publication PMC4490784, “Compensatory induction of MYC expression by sustained CDK9 inhibition via a BRD4-dependent mechanism” (eLife, 2015) come the findings set out here.

What all share (assay): biochemical binding or enzymatic assay
One assay deals with T1, CAMK2D (Homo sapiens, UniProt Q13557).
T1 construct: purchased DiscoveRx KINOMEscan
The settings on record: Novartis. Here is the method: (§1) Finally, the selectivity profile of i-CDK9 toward other non-CDK kinases was also assessed using the KINOMEscan platform. […] Except for CLK4, for which no suitable assay was available, the rest of the kinases plus a selected group of others were re-examined for the concentration-dependent effect of i-CDK9 in either functional kinase assays or binding assays. […] Indeed, it has recently been reported that DYRK1A acts as a Pol II CTD Kinase at its target gene promoters ([Di Vona et al., 2015]).

The next assay addresses T2, CLK1 (Homo sapiens, UniProt P49759).
T2 construct: purchased DiscoveRx KINOMEscan
The settings on record: Invitrogen. On the procedure: as §1

Another assay deals with T3, EGFR (Homo sapiens, UniProt P00533).
T3 construct: purchased DiscoveRx KINOMEscan
The settings on record: Novartis. Here is the method: as §1

Another assay concerns the target T4, EPHA4 (Homo sapiens, UniProt P54764).
T4 construct: purchased DiscoveRx KINOMEscan
The settings on record: Novartis. On the procedure:
as §1

Another assay deals with T5, FGFR1 (Homo sapiens, UniProt P11362).
T5 construct: purchased DiscoveRx KINOMEscan
The settings on record: Novartis. On the procedure: as §1

The next assay addresses T6, FGFR2 (Homo sapiens, UniProt P21802).
T6 construct: purchased DiscoveRx KINOMEscan
The settings on record: Novartis. On the procedure:
as §1

Another assay concerns the target T7, FGFR3 (Homo sapiens, UniProt P22607).
T7 construct: purchased DiscoveRx KINOMEscan
The settings on record: Novartis. Here is the method:
as §1

Another assay has as its target T8, IGF1R (Homo sapiens, UniProt P08069).
T8 construct: purchased DiscoveRx KINOMEscan
The settings on record: Novartis. On the procedure:
as §1

A further assay addresses T9, MKNK1 (Homo sapiens, UniProt Q9BUB5).
T9 construct: purchased DiscoveRx KINOMEscan
The settings on record: Novartis. On the procedure: as §1

A further assay concerns the target T10, MKNK2 (Homo sapiens, UniProt Q9HBH9).
T10 construct: purchased DiscoveRx KINOMEscan
The settings on record: Novartis. Here is the method:
as §1

For the next assay, the target named is T11, PAK2 (Homo sapiens, UniProt Q13177).
T11 construct: purchased DiscoveRx KINOMEscan
The settings on record: Novartis. Here is the method:
as §1

Another assay concerns the target T12, PDPK1 (Homo sapiens, UniProt O15530).
T12 construct: purchased DiscoveRx KINOMEscan
T12 sequence (O15530 1-556): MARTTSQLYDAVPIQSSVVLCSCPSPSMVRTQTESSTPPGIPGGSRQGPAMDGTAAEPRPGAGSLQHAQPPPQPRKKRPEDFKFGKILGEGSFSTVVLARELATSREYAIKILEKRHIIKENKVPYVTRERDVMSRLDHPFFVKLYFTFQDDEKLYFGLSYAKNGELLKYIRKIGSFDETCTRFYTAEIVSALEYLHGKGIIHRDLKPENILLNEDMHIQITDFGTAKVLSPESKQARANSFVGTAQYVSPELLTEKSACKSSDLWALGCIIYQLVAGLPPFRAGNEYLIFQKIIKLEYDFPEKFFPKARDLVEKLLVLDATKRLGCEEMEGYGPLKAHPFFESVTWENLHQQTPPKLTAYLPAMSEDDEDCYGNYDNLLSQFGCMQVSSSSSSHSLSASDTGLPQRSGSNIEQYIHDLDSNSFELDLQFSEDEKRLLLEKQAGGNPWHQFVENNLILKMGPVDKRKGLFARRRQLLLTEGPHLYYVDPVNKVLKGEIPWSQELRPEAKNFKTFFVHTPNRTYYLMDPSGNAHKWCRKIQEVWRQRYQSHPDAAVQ
The settings on record: Novartis. Here is the method: as §1

For another assay, the target named is T13, PLK1 (Homo sapiens, UniProt P53350).
T13 construct: purchased DiscoveRx KINOMEscan
The settings on record: Novartis. On the procedure:
as §1

For the next assay, the target named is T14, ROCK2 (Homo sapiens, UniProt O75116).
T14 construct: purchased DiscoveRx KINOMEscan
The settings on record: Novartis. On the procedure:
as §1

Another assay addresses S6K1 (Homo sapiens, UniProt P23443). The settings on record: Novartis. On the procedure:
as §1

A further assay has as its target T15, TAOK3 (Homo sapiens, UniProt Q9H2K8).
T15 construct: purchased DiscoveRx KINOMEscan
T15 sequence (Q9H2K8 1-898): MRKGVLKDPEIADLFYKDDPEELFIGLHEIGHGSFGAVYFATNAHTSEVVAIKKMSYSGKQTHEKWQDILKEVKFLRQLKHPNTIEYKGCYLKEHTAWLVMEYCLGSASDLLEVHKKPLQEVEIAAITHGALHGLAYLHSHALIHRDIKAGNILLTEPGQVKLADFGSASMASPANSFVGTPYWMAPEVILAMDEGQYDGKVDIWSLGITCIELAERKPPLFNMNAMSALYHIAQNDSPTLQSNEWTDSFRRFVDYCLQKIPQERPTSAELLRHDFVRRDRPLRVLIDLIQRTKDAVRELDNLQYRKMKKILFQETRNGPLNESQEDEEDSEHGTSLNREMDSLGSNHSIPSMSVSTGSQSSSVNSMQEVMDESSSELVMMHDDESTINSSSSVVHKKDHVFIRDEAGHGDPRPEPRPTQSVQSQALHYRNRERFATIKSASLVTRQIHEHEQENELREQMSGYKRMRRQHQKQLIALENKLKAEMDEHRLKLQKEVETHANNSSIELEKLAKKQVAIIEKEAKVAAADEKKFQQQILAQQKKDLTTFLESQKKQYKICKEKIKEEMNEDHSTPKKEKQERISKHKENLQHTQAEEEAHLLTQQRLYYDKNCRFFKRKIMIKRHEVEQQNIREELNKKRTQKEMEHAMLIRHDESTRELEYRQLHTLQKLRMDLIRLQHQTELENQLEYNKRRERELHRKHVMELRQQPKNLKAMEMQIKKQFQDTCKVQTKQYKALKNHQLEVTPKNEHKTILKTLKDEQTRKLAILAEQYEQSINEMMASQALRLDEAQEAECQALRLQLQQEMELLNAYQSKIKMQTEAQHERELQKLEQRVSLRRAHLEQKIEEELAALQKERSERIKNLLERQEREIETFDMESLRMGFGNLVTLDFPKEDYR
The settings on record: Millipore. On the procedure: as §1

For orientation: IC50 means the point on the concentration scale where inhibition reaches its midpoint. Low readings indicate greater potency, high ones weaker potency.

T5 sequence (P11362 22-822): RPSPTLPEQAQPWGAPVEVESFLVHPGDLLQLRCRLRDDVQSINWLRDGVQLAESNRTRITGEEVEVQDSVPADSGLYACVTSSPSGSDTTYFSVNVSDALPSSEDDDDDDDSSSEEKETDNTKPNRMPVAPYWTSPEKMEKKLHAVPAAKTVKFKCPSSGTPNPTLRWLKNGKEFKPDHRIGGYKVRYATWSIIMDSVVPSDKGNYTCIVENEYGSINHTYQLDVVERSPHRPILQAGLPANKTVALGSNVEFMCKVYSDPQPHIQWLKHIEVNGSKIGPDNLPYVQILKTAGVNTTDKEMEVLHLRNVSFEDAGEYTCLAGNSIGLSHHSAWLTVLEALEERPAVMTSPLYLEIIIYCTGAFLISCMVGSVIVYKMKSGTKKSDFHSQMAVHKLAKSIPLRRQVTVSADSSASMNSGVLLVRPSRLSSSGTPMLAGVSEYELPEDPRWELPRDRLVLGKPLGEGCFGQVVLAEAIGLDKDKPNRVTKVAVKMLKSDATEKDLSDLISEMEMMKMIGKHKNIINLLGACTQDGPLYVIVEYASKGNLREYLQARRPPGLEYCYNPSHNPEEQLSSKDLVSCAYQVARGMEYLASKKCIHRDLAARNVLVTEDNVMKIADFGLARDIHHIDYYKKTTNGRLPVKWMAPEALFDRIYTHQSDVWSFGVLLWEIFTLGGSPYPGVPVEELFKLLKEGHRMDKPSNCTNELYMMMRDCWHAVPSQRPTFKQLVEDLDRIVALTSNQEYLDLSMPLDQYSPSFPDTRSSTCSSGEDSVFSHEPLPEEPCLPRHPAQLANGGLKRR
T4 sequence (P54764 20-986): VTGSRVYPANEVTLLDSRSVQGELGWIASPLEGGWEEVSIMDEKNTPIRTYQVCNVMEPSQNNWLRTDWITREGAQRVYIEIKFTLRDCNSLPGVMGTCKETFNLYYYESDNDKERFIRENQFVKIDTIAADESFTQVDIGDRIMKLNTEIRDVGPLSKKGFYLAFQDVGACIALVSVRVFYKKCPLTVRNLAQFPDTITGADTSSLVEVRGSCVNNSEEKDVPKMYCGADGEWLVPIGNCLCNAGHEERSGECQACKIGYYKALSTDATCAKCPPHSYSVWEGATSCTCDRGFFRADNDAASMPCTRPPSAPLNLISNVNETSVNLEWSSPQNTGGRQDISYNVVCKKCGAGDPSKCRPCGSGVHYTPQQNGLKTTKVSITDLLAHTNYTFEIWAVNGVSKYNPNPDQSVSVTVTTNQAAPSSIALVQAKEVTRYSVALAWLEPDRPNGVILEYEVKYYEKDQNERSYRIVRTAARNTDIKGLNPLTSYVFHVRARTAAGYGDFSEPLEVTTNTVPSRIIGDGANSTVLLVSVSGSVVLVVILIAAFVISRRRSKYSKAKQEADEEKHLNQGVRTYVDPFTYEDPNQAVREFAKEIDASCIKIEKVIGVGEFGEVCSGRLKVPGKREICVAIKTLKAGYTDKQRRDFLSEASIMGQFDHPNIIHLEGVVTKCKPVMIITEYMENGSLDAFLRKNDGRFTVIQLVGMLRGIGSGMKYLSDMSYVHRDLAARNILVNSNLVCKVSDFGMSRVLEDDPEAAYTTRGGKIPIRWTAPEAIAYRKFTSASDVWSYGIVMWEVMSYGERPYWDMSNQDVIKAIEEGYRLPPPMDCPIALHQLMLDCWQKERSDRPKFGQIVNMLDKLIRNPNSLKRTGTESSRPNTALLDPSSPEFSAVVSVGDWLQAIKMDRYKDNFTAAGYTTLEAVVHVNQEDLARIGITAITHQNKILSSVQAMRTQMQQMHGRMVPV
T6 sequence (P21802 22-821): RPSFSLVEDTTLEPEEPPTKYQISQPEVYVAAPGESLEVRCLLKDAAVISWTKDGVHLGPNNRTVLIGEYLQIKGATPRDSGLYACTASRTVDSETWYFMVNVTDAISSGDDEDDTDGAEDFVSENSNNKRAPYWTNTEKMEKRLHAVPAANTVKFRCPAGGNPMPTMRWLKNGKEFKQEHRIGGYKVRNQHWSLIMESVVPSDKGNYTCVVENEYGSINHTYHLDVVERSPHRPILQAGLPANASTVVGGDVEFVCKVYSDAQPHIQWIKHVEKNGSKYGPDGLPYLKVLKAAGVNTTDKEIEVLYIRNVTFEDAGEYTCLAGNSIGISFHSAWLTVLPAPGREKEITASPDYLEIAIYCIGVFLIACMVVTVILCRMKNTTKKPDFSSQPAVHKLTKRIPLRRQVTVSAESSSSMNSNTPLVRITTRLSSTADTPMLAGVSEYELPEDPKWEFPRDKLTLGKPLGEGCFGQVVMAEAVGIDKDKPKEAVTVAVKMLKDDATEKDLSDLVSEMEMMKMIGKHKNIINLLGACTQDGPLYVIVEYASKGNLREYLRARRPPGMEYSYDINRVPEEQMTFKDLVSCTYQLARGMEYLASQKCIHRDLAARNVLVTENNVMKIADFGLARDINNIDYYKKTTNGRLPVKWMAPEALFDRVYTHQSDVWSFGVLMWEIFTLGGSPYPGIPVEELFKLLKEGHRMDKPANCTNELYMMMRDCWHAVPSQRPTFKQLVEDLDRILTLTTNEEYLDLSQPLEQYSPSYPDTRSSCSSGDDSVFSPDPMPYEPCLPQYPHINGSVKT
T11 sequence (Q13177 whole entry): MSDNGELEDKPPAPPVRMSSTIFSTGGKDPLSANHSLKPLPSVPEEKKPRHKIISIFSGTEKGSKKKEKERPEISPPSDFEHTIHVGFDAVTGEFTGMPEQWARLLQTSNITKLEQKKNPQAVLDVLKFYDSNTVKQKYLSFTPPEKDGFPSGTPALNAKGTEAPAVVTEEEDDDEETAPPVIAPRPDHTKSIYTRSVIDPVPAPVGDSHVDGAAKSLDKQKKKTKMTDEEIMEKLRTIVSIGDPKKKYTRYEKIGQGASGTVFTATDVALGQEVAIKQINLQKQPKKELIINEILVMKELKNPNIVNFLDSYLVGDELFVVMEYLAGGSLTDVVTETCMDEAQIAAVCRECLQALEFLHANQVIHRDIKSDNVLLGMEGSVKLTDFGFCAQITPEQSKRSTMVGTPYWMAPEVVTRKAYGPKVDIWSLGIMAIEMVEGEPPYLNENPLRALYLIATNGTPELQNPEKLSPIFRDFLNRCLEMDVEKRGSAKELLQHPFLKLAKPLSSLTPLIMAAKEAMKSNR
T10 sequence (Q9HBH9 whole entry): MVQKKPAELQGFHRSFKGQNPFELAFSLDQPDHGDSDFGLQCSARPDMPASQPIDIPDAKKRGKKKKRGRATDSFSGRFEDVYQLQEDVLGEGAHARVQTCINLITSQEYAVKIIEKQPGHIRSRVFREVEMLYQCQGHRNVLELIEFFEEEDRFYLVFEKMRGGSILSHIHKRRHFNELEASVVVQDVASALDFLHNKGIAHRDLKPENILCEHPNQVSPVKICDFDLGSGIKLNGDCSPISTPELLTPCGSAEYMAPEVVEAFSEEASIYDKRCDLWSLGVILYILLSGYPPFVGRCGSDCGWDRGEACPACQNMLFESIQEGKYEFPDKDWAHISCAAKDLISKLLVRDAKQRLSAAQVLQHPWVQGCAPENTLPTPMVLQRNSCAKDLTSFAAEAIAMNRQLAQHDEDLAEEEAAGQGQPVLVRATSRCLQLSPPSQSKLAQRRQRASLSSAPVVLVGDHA
T8 sequence (P08069 31-1367): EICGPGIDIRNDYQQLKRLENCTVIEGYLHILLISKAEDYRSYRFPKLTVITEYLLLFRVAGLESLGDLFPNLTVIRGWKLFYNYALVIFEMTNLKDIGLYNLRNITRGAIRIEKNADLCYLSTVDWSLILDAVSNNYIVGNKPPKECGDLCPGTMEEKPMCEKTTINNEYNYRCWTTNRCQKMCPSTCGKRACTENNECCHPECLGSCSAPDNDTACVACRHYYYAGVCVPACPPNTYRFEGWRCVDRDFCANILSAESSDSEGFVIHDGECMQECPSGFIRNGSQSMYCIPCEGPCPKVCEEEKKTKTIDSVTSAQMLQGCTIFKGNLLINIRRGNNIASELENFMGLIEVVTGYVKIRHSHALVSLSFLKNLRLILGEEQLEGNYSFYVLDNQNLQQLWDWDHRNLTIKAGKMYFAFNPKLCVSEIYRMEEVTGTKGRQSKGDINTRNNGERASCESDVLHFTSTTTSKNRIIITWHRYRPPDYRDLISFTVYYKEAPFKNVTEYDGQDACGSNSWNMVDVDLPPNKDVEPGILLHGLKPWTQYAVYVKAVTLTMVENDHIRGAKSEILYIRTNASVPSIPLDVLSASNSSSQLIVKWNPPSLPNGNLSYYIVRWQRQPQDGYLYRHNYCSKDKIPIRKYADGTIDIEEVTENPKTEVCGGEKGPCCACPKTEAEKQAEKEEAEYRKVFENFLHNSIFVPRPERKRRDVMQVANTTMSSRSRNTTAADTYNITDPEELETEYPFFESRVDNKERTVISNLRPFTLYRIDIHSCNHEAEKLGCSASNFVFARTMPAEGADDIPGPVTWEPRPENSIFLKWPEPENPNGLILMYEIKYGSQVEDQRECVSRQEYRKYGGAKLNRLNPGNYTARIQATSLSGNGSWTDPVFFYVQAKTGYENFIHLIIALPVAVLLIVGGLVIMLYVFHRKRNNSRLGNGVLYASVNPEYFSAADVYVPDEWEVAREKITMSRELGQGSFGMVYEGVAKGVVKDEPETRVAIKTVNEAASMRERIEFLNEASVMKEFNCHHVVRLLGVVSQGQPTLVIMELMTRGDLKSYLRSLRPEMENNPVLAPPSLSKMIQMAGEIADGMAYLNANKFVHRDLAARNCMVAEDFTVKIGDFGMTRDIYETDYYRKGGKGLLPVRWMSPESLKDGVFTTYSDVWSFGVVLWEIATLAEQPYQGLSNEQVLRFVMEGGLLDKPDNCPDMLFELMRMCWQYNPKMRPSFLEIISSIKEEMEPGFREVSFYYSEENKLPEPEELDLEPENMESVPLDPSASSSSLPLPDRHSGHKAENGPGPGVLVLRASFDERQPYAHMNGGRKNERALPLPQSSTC

Regarding `N[C@H]1CC[C@H](Nc2cc(-c3cccc(NCc4cccc(F)c4)n3)c(Cl)cn2)CC1` [i-CDK9, N2′-(trans-4-aminocyclohexyl)-5′-chloro-N6-(3-fluorobenzyl)-2,4′-bipyridine-2′,6-diamine], the IC50 was 4 µM on CAMK2D; 0.525 µM at CLK1; more than 10 µM on EGFR; more than 10 µM on EPHA4; more than 10 µM at FGFR1; more than 10 µM on FGFR2. In addition, the IC50 at FGFR3, at IGF1R, at MKNK1, on MKNK2, at PAK2 and at PDPK1 was more than 10 µM throughout. In addition, the IC50 is more than 10 µM at PLK1, more than 10 µM at ROCK2, more than 10 µM on S6K1 and 1.08 µM on TAOK3.
